# Source: PMC6516726 (ACS Catalysis, 2018)
# Like-named read-outs stand apart in the source and are kept apart here.
# Columns and labels:
# PETNR = target: PETNR; set-up: method as in earlier work; settings: PETNR−coenzyme analogue complex; cited from earlier work
# WT PETNR [1] = target: T1, WT PETNR (Enterobacter cloacae, UniProt P71278); assay: pH dependence of FMN reduction of WT PETNR in MTEN buffer; assay type: biochemical, Enterobacter Cloacae PB2; set-up: made in house
# Description: (R)-[4-2H]-NADPH at pH 6, pH 7 and pH9 (A) and the corresponding temperature dependencies of the observed primary kinetic isotope effects (B). The measurements were performed in MTEN buffer (50 mM MES, 25 mM Tris, 25 mM ethanola-mine, and 100 mM NaCl), which has a useful buffering capacity and minimal change in ionic strength over the pH range 6-9 in which PETNR is stable; we attempted testing PETNR in pH 5 as well, but the enzyme is unstable at this pH. The observed rate constants of FMN reduction at pH 7 in MTEN buffer are essentially the same to those measured in 50 mM potassium phosphate buffer, pH 7 and similar observation are valid for the KIEs values (Table S3).The rate of FMN reduction is essentially insensitive to pH across the whole temperature range (5-40 °C), and also that KIEs values are essentially not affected by changes in pH (the rate of FMN reduction by (R)-[4-2H]-NADPH is independent of pH as well across all temperatures studied; see Table S3 for extracted thermodynamic parameters). Although these experiments cannot completely exclude any kinetic […]
# of H-transfer and protonation (which would lead to pH-dependent rates) which makes it very likely that the observed rate are reporting directly on the H-transfer step.
# Table S3. Extracted Thermodynamic Parameters from pH Dependence Studies.
# (kJ mol-1) (J mol-1 K-1) (kJ mol-1 K-1)
# L25A PETNR = L25A PETNR (Enterobacter cloacae, UniProt P71278, L26A); settings: for A2 (amplitude of kobs2 out of total absorbance change) / kobs1 / kobs2: pH 7.0
# L25I PETNR = L25I PETNR (Enterobacter cloacae, UniProt P71278, L26I); settings: for kobs1 / A2 (amplitude of kobs2 out of total absorbance change) / kobs2: 10 mM NADPH or 25 mM NADH, pH 7.0
# WT PETNR [2] = target: T1, WT PETNR; assay: Stopped-flow FMN reduction (reductive half-reaction, hydride transfer) of WT PETNR by coenzyme; settings: for kobs1 / A2 (amplitude of kobs2 out of total absorbance change) / kobs2: 10 mM NADPH or 25 mM NADH, pH 7.0
# [3] = 5 °C, 10 mM NADPH or 25 mM NADH
# [4] = 10 °C, 10 mM NADPH or 25 mM NADH
# [5] = 20 °C, 10 mM NADPH or 25 mM NADH
# [6] = 25 °C, 50 mM potassium phosphate pH 7.0, 20 μM enzyme, fast phase
# [7] = 25 °C, 10 mM NADPH or 25 mM NADH
# [8] = 30 °C, 10 mM NADPH or 25 mM NADH
# [9] = 35 °C, 10 mM NADPH or 25 mM NADH
# [10] = 40 °C, third phase, 10 mM NADPH or 25 mM NADH
# [11] = 40 °C, 10 mM NADPH or 25 mM NADH
# [12] = T0 = 298 K, fit of kobs1 (5–40 °C) to eq 1
# [13] = 25 °C, 50 mM potassium phosphate pH 7.0, 20 μM enzyme
# Chain of L25A PETNR (P71278 entry or part of it L26A): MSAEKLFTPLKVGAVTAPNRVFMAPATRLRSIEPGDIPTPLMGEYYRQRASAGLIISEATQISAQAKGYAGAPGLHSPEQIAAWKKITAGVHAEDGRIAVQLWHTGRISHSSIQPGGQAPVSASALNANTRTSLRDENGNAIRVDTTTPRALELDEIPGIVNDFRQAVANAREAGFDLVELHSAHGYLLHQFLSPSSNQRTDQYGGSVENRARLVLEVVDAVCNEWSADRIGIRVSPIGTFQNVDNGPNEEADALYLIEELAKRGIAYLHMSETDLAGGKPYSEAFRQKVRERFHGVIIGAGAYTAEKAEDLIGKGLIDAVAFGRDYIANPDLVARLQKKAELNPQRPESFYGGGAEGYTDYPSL
# Chain of L25I PETNR (P71278 entry or part of it L26I): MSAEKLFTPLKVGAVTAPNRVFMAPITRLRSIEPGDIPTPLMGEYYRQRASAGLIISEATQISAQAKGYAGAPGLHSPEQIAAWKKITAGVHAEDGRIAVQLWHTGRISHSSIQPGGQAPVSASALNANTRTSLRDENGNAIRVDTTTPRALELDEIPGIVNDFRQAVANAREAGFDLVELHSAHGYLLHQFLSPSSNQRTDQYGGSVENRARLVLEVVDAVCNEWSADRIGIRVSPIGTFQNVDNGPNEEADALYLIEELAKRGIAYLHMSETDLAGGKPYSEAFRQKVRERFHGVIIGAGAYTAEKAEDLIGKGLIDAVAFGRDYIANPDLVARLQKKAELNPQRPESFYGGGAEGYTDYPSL
# T1 sequence (P71278 entry or part of it): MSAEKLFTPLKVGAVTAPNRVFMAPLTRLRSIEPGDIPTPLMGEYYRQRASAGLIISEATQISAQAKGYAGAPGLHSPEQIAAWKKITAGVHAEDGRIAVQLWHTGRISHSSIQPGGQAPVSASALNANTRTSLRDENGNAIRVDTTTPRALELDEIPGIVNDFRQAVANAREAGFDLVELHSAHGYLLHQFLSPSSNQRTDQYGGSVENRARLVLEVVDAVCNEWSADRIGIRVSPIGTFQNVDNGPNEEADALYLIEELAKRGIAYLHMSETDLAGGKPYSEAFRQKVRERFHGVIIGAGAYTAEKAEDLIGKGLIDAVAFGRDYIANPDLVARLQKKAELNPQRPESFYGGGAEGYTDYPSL
smiles,measurement,setting,value
NC(=O)C1=CN([C@@H]2O[C@H](COP(=O)(O)OP(=O)(O)OC[C@H]3O[C@@H](n4cnc5c(N)ncnc54)[C@H](OP(=O)(O)O)[C@@H]3O)[C@@H](O)[C@H]2O)CCC1 [NADPH4],Kd,PETNR,130 µM
NC(=O)C1=CN([C@@H]2O[C@H](COP(=O)(O)OP(=O)(O)OC[C@H]3O[C@@H](n4cnc5c(N)ncnc54)[C@H](OP(=O)(O)O)[C@@H]3O)[C@@H](O)[C@H]2O)C=CC1 [NADPH],ΔCp⧧,"WT PETNR [1]; pH 6, MTEN buffer",-0.58 ± 0.10 kJ mol-1 K-1
same,ΔHT0⧧,"WT PETNR [1]; pH 6, MTEN buffer",27.2 ± 0.6 kJ/mol
same,ΔST0⧧,"WT PETNR [1]; pH 6, MTEN buffer",-124.3 ± 2.0 J mol-1 K-1
same,ΔCp⧧,"WT PETNR [1]; pH 7, MTEN buffer",-0.61 ± 0.08 kJ mol-1 K-1
same,ΔHT0⧧,"WT PETNR [1]; pH 7, MTEN buffer",27.6 ± 0.7 kJ/mol
same,ΔST0⧧,"WT PETNR [1]; pH 7, MTEN buffer",-122.7 ± 1.6 J mol-1 K-1
same,ΔCp⧧,"WT PETNR [1]; pH 9, MTEN buffer",-0.45 ± 0.12 kJ mol-1 K-1
same,ΔHT0⧧,"WT PETNR [1]; pH 9, MTEN buffer",28.9 ± 0.7 kJ/mol
same,ΔST0⧧,"WT PETNR [1]; pH 9, MTEN buffer",-118.6 ± 2.3 J mol-1 K-1
same,A2 (amplitude of kobs2 out of total absorbance change),L25A PETNR; [3],2.93 ± 0.55%
same,kobs1,L25A PETNR; [3],19.18 ± 0.22 s⁻¹
same,A2 (amplitude of kobs2 out of total absorbance change),L25A PETNR; [4],2.70 ± 0.56%
same,kobs1,L25A PETNR; [4],26.03 ± 0.17 s⁻¹
same,kobs1,"L25A PETNR; 15 °C, 10 mM NADPH or 25 mM NADH",34.93 ± 1.25 s⁻¹
same,A2 (amplitude of kobs2 out of total absorbance change),L25A PETNR; [5],3.58 ± 0.47%
same,kobs2,L25A PETNR; [5],2.42 ± 0.48 s⁻¹
same,increase in KS vs WT PETNR,L25A PETNR; 25 °C,2 fold
same,kred,L25A PETNR; [6],55.75 ± 0.35 s^–1
same,"rate of H-transfer, faster than WT PETNR","L25A PETNR; 25 °C, kred vs WT",60%
same,A2 (amplitude of kobs2 out of total absorbance change),L25A PETNR; [7],4.73 ± 0.26%
same,kobs1,L25A PETNR; [7],53.77 ± 1.15 s⁻¹
same,kobs2,L25A PETNR; [7],1.54 ± 0.45 s⁻¹
same,A2 (amplitude of kobs2 out of total absorbance change),L25A PETNR; [8],7.50 ± 0.21%
same,kobs1,L25A PETNR; [8],59.63 ± 2.29 s⁻¹
same,A2 (amplitude of kobs2 out of total absorbance change),L25A PETNR; [9],16.48 ± 0.53%
same,kobs1,L25A PETNR; [9],68.39 ± 8.69 s⁻¹
same,kobs2,L25A PETNR; [9],0.51 ± 0.17 s⁻¹
same,A3 (amplitude of third phase),L25A PETNR; [10],19.34 ± 0.54%
same,kobs3,L25A PETNR; [10],3.55 ± 1.03
same,A2 (amplitude of kobs2 out of total absorbance change),L25A PETNR; [11],25.54 ± 0.91%
same,kobs1,L25A PETNR; [11],71.16 ± 6.56 s⁻¹
same,kobs2,L25A PETNR; [11],0.26 ± 0.06 s⁻¹
same,total absorbance change attributed to kobs2,"L25A PETNR; 40 °C, sum of two slow phases (kobs2 and kobs3)",~40%
same,ΔCp^⧧,L25A PETNR; [12],–0.92 ± 0.12 kJ mol^–1 K^–1
same,ΔHT0^⧧,L25A PETNR; [12],23.3 ± 1.2 kJ mol^–1
same,ΔST0^⧧,L25A PETNR; [12],–133.7 ± 4.1 J mol^–1 K^–1
same,kobs1,L25I PETNR; 5 °C,10.12 ± 0.04 s⁻¹
same,kobs1,L25I PETNR; 10 °C,13.47 ± 0.06 s⁻¹
same,kobs1,L25I PETNR; 15 °C,18.07 ± 0.05 s⁻¹
same,A2 (amplitude of kobs2 out of total absorbance change),L25I PETNR; 20 °C,3.28 ± 1.62%
same,kobs1,L25I PETNR; 20 °C,24.33 ± 0.52 s⁻¹
same,kobs2,L25I PETNR; 20 °C,2.25 ± 2.63 s⁻¹
same,KS,L25I PETNR; [13],130 ± 8 µM
same,kred,L25I PETNR; [6],29.49 ± 0.49 s^–1
same,kobs1,L25I PETNR; 25 °C,30.24 ± 0.42 s⁻¹
same,kobs1,L25I PETNR; 30 °C,36.74 ± 0.28 s⁻¹
same,kobs2,L25I PETNR; 30 °C,2.57 ± 0.62 s⁻¹
same,A2 (amplitude of kobs2 out of total absorbance change),L25I PETNR; 35 °C,5.72 ± 0.36%
same,A2 (amplitude of kobs2 out of total absorbance change),L25I PETNR; 40 °C,10.89 ± 0.63%
same,kobs1,L25I PETNR; 40 °C,49.82 ± 1.14 s⁻¹
same,ΔCp^⧧,L25I PETNR; [12],–0.43 ± 0.07 kJ mol^–1 K^–1
same,ΔHT0^⧧,L25I PETNR; [12],30.4 ± 0.6 kJ mol^–1
same,ΔST0^⧧,L25I PETNR; [12],–114.9 ± 2.0 J mol^–1 K^–1
same,kobs1,WT PETNR [2]; 5 °C,11.31 ± 0.09 s⁻¹
same,kobs1,WT PETNR [2]; 10 °C,15.23 ± 0.15 s⁻¹
same,kobs1,WT PETNR [2]; 15 °C,20.32 ± 0.25 s⁻¹
same,kobs1,WT PETNR [2]; 20 °C,26.28 ± 0.31 s⁻¹
same,KS,WT PETNR [2]; [13],103 ± 4 µM
same,kred,WT PETNR [2]; [6],33.43 ± 0.22 s^–1
same,kobs1,WT PETNR [2]; 25 °C,33.74 ± 0.46 s⁻¹
same,A2 (amplitude of kobs2 out of total absorbance change),WT PETNR [2]; 35 °C,1.41 ± 0.23%
same,kobs1,WT PETNR [2]; 35 °C,50.46 ± 0.75 s⁻¹
same,kobs2,WT PETNR [2]; 35 °C,1.19 ± 0.92 s⁻¹
same,A2 (amplitude of kobs2 out of total absorbance change),WT PETNR [2]; 40 °C,2.29 ± 0.35%
same,kobs1,WT PETNR [2]; 40 °C,58.49 ± 0.50 s⁻¹
same,kobs2,WT PETNR [2]; 40 °C,1.09 ± 0.16 s⁻¹
same,ΔCp^⧧,WT PETNR [2]; [12],–0.50 ± 0.05 kJ mol^–1 K^–1
same,ΔHT0^⧧,WT PETNR [2]; [12],30.4 ± 0.3 kJ mol^–1
same,ΔST0^⧧,WT PETNR [2]; [12],–113.9 ± 0.9 J mol^–1 K^–1
